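The concentration for 50% growth inhibition is given as GI50. TGI is the concentration that stops growth completely.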
Assays:
Test in all cases: inhibition of tumour cell growth, NCI panel, 384-well format
SNB-75 CNS = test system: SNB-75 CNS
HCC-2998 colon = test system: HCC-2998 colon
NCI-H322M lung = test system: NCI-H322M lung
MDA-MB-435 melanoma = test system: MDA-MB-435 melanoma
CAKI-1 renal = test system: CAKI-1 renal
RPMI-8226 leukemia = test system: RPMI-8226 leukemia
HS 578T breast = test system: HS 578T breast
IGROV1 ovarian = test system: IGROV1 ovarian
NCI-H23 lung = test system: NCI-H23 lung
NCI-H522 lung = test system: NCI-H522 lung
HT29 colon = test system: HT29 colon
NCI/ADR-RES ovarian = test system: NCI/ADR-RES ovarian
CCRF-CEM leukemia = test system: CCRF-CEM leukemia
EKVX NSCLC = test system: EKVX NSCLC
OVCAR-3 ovarian = test system: OVCAR-3 ovarian
OVCAR-4 ovarian = test system: OVCAR-4 ovarian
PC-3 prostate = test system: PC-3 prostate
SR leukemia = test system: SR leukemia
ACHN renal = test system: ACHN renal
NCI-H226 lung = test system: NCI-H226 lung
HOP-62 NSCLC = test system: HOP-62 NSCLC
SW-620 colon = test system: SW-620 colon
TK-10 renal = test system: TK-10 renal
K-562 leukemia = test system: K-562 leukemia
OVCAR-8 ovarian = test system: OVCAR-8 ovarian
SK-OV-3 ovarian = test system: SK-OV-3 ovarian
SF-295 CNS = test system: SF-295 CNS
M14 melanoma = test system: M14 melanoma
A498 renal = test system: A498 renal
A549 NSCLC = test system: A549 NSCLC
HCT-15 colon = test system: HCT-15 colon
HL-60(TB) leukemia = test system: HL-60(TB) leukemia
SK-MEL-28 melanoma = test system: SK-MEL-28 melanoma
MDA-MB-231 breast = test system: MDA-MB-231 breast
786-0 renal = test system: 786-0 renal
SK-MEL-2 melanoma = test system: SK-MEL-2 melanoma
DU-145 prostate = test system: DU-145 prostate
MALME-3M melanoma = test system: MALME-3M melanoma
UO-31 renal = test system: UO-31 renal
SNB-19 CNS = test system: SNB-19 CNS
U251 glioblastoma = test system: U251 glioblastoma
MOLT-4 leukemia = test system: MOLT-4 leukemia
SF-268 CNS = test system: SF-268 CNS
MCF7 breast = test system: MCF7 breast
RXF 393 renal = test system: RXF 393 renal
HOP-92 NSCLC = test system: HOP-92 NSCLC
SN12C renal = test system: SN12C renal

## Cc1cc(-c2nnc(N)nc2-c2ccc(F)cc2)cc(Cl)n1
SNB-75 CNS
  GI50: > 100 µM
  TGI: > 100 µM
HCC-2998 colon
  GI50: > 100 µM
  TGI: > 100 µM
NCI-H322M lung
  GI50: > 100 µM
  TGI: > 100 µM
MDA-MB-435 melanoma
  GI50: > 100 µM
  TGI: > 100 µM
CAKI-1 renal
  GI50: > 91.5 µM
  TGI: > 100 µM
RPMI-8226 leukemia
  GI50: 20.3 µM
  TGI: > 61.2 µM
HS 578T breast
  GI50: 62.8 µM
  TGI: > 100 µM
IGROV1 ovarian
  GI50: > 90.4 µM
  TGI: > 100 µM
NCI-H23 lung
  GI50: 32.5 µM
  TGI: > 100 µM
NCI-H522 lung
  GI50: 42.9 µM
  TGI: > 100 µM
HT29 colon
  GI50: > 100 µM
  TGI: > 100 µM
NCI/ADR-RES ovarian
  GI50: 25.3 µM
  TGI: 86.3 µM
CCRF-CEM leukemia
  GI50: 48.3 µM
  TGI: > 100 µM
EKVX NSCLC
  GI50: 52.9 µM
  TGI: > 100 µM
OVCAR-3 ovarian
  GI50: > 81.9 µM
  TGI: > 100 µM
OVCAR-4 ovarian
  GI50: > 91.2 µM
  TGI: > 100 µM
PC-3 prostate
  GI50: > 73.2 µM
  TGI: > 100 µM
SR leukemia
  GI50: 33.9 µM
  TGI: > 100 µM
ACHN renal
  GI50: > 100 µM
  TGI: > 100 µM
NCI-H226 lung
  GI50: > 100 µM
  TGI: > 100 µM
HOP-62 NSCLC
  GI50: > 82.1 µM
  TGI: > 100 µM
SW-620 colon
  GI50: > 81.1 µM
  TGI: > 100 µM
TK-10 renal
  GI50: 44.3 µM
  TGI: > 100 µM
K-562 leukemia
  GI50: 37.8 µM
  TGI: > 100 µM
OVCAR-8 ovarian
  GI50: > 92.6 µM
  TGI: > 100 µM
SK-OV-3 ovarian
  GI50: > 100 µM
  TGI: > 100 µM
SF-295 CNS
  GI50: > 84.4 µM
  TGI: > 100 µM
M14 melanoma
  GI50: > 100 µM
  TGI: > 100 µM
A498 renal
  GI50: > 100 µM
  TGI: > 100 µM
A549 NSCLC
  GI50: > 100 µM
  TGI: > 100 µM
HCT-15 colon
  GI50: > 100 µM
  TGI: > 100 µM
HL-60(TB) leukemia
  GI50: 36.5 µM
  TGI: > 100 µM
SK-MEL-28 melanoma
  GI50: > 100 µM
  TGI: > 100 µM
MDA-MB-231 breast
  GI50: > 85.7 µM
  TGI: > 100 µM
786-0 renal
  GI50: > 100 µM
  TGI: > 100 µM
SK-MEL-2 melanoma
  GI50: > 100 µM
  TGI: > 100 µM
DU-145 prostate
  GI50: > 100 µM
  TGI: > 100 µM
MALME-3M melanoma
  GI50: > 100 µM
  TGI: > 100 µM
UO-31 renal
  GI50: 88.6 µM
  TGI: > 100 µM
SNB-19 CNS
  GI50: > 100 µM
  TGI: > 100 µM
U251 glioblastoma
  GI50: > 75.5 µM
  TGI: > 100 µM
MOLT-4 leukemia
  GI50: 30.5 µM
  TGI: > 90.8 µM
SF-268 CNS
  GI50: > 100 µM
  TGI: > 100 µM
MCF7 breast
  GI50: > 100 µM
  TGI: > 100 µM
RXF 393 renal
  GI50: 28.5 µM
  TGI: > 100 µM
HOP-92 NSCLC
  GI50: > 50.9 µM
  TGI: > 100 µM
SN12C renal
  GI50: > 100 µM
  TGI: > 100 µM

Reference: PubChem BioAssay (NCI)
